The structures appear in SMILES notation.

We go through eight molecules from patent US20250213705A1, “PSMA TARGETING LIGANDS AND METHODS OF USE” (Bright Peak Therapeutics AG, priority 2023, published 2025).

The target of assay [1] is PSMA+ cells (22rv1 human prostate carcinoma epithelial cell line) (Homo sapiens (Human), UniProt Q04609). The assay is described as follows: Cellular competition assay on PSMA+ cells (flow cytometry, competition with BPT1288), 22rv1. Type of assay: cell-based. (In general: Flow cytometry measures light scatter and fluorescence of single cells or particles in a stream.)
Chain of PSMA+ cells (22rv1 human prostate carcinoma epithelial cell line) (Q04609 whole entry): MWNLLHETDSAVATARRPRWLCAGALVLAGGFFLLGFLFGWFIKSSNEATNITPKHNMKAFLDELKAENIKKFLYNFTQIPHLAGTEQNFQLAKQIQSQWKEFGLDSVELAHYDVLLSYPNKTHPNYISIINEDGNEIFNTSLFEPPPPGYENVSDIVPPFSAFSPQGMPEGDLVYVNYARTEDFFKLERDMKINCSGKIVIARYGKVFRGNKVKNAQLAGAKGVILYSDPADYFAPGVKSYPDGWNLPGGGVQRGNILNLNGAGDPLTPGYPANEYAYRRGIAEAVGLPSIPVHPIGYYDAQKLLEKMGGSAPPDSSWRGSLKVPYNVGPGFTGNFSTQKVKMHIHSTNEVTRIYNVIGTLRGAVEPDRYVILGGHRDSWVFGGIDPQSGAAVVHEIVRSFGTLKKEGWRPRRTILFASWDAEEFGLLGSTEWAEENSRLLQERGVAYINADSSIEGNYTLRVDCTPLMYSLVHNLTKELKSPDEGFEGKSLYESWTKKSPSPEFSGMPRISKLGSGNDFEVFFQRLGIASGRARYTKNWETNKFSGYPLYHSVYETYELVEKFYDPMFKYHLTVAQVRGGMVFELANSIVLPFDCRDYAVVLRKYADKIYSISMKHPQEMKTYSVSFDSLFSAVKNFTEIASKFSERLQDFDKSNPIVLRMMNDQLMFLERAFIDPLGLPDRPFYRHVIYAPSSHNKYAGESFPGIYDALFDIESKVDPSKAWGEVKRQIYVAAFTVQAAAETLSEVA
Method: On the day of experiment, cells were harvested with Trypsin and washed with assay buffer consisting of 1×PBS supplemented with 2% FBS and stained with viability dye (Biolegend Zombie NIR) diluted 1:1000 in PBS for 20 minutes. After washing and counting, cells were seeded at 50,000 cells/well in a 96 well V bottom polypropylene plate and kept on ice. Twelve 4-fold serial dilutions of analytes were prepared in cold assay buffer and added to cell suspension.
Single-cell AlexaFluor488 fluorescence emission was measured with a flow cytometer and plotted against analyte concentration in X-axis. Half maximal inhibition concentrations (IC50) were calculated based on a variable slope and four parameter analysis using GraphPad PRISM software
Assay [2] has as its target Recombinant Human PSMA/FOLH1 Protein (Homo sapiens (Human), UniProt Q04609). Briefly: Inhibition assay (Amplex Red glutamic acid/glutamate oxidase, NAAG substrate). The assay is classed as biochemical. To be noted: Target PSMA, average of N replicates; for IC50: PSMA 5 nM, NAAG 40 μM; for Ki: calculated based on Cheng-Prusoff equation. Put shortly:
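NAAG hydrolysis by recombinant human PSMA, with released glutamate read through a coupled Amplex Red system (glutamate oxidase, HRP, glutamate-pyruvate transaminase, 200 μM L-alanine in the working solution). EC50 fitted and Ki derived by Cheng-Prusoff.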

For assay [3], the target named is human FOLH1 (Homo sapiens (Human), UniProt Q04609). Briefly: SPR analysis of binding kinetics to biotinylated FOLH1 (Biacore 8K). The settings on record: ligand PSMA; for Kd: kinetic 1:1 binding model; for Kon: association rate; for koff: dissociation rate. The protocol: The interaction of PSMA-binding variants with human FOLH1 was measured with Surface Plasmon Resonance (SPR) technology. Biotinylated FOLH1 was captured at a concentration of 30 μg/mL onto a Streptavidin chip.
Chain of human FOLH1 (Q04609 whole entry): as above
Binding kinetics of the analytes were measured with a Biacore 8K instrument in two-fold serial dilutions starting at 500 nM down to 1.95 nM in single cycle kinetic measurements. After each cycle, needles were washed with 50% DMSO. To measure the association to the FOLH1 protein, the samples were injected with a flow rate of 30 μL/min for 90 s, followed by 1200 s buffer only to detect the dissociation. The used running buffer was 1×PBS with 0.05% Tween20 and 2% DMSO. The relative response units (RU, Y-axis) are plotted against time (s, X-axis) and analyzed in a kinetic 1:1 binding model.
In a different setup, biotinylated FOLH1 was captured at a concentration of 0.8 μg/mL and the running buffer was 1×PBS with 0.05% Tween20.
For orientation: Surface plasmon resonance follows binding to a sensor surface in real time, without labels.

Chain of Recombinant Human PSMA/FOLH1 Protein (Q04609 whole entry): as above

As for `CC(=O)NCCOCCOCCOCCC(=O)NC[C@H]1CC[C@H](C(=O)N[C@@H](Cc2ccc3ccccc3c2)C(=O)NCCCC[C@H](NC(=O)N[C@@H](CCC(=O)O)C(=O)O)C(=O)O)CC1` [Compound 8], the IC50 in assay [1] was determined as 2.65 nM; in assay [2], 29.3 nM. Further, the Ki in assay [2] was 0.21 nM. The molecule further showed a Kd in assay [3] of 0.654 nM.

As to `CC(=O)NCCOCCOCCOCCC(=O)N[C@@H](CCCOc1cc(C#N)cc(C#N)c1)C(=O)NCC(=O)N[C@@H](Cc1ccc2ccccc2c1)C(=O)NCCCC[C@H](NC(=O)N[C@@H](CCC(=O)O)C(=O)O)C(=O)O` [Compound 52], in assay [2], the half-inhibitory concentration (IC50) came out at 26.1 nM and the Ki was 0.187 nM. In assay [3], the Kon is recorded as 291000 1.ms, the dissociation rate constant (koff) amounted to 0.000326 s⁻¹ and the dissociation constant (Kd) came to 1.12 nM.

With `CC(=O)NCCOCCOCCOCCC(=O)NC[C@H]1CC[C@H](C(=O)N[C@@H](Cc2c[nH]c3ccccc23)C(=O)NCCCC[C@H](NC(=O)N[C@@H](CCC(=O)O)C(=O)O)C(=O)O)CC1` (stereo in doubt) [Compound 2], in assay [2], the 50% inhibitory concentration (IC50) was determined as 25.1 nM and the Ki is 0.18 nM. Moreover, in assay [3], the Kon is given as 158000 1.ms, the koff was determined as 3.3e-05 s⁻¹ and binding was put at a Kd of 0.208 nM.

Turning to `CC(=O)NCCOCCOCCOCCC(=O)N(CCCCOc1cc(C#N)cc(C#N)c1)CC(=O)N[C@@H](Cc1ccc2ccccc2c1)C(=O)NCCCC[C@H](NC(=O)N[C@@H](CCC(=O)O)C(=O)O)C(=O)O` [Compound 87], in assay [2], the IC50 turned out to be 1480 nM and the Ki is 10.6 nM. Further, in assay [3], the Kon is 272000 1.ms, the koff turned out to be 0.000136 s⁻¹ and the dissociation constant Kd came to 0.5 nM.

Take `CC(=O)NCCOCCOCCOCCC(=O)NC[C@H]1CC[C@H](C(=O)N[C@@H](Cc2ccc(N)cc2)C(=O)NCCCC[C@H](NC(=O)N[C@@H](CCC(=O)O)C(=O)O)C(=O)O)CC1` [Compound 14]: in assay [2], the IC50 was 286 nM and the inhibitory constant (Ki) is 2.05 nM. Also, in assay [3], the Kon was 131000 1.ms; the koff was determined as 0.000618 s⁻¹; the affinity, expressed as Kd, was 4.71 nM.

Turning to `CC(=O)NCCOCCOCCOCCC(=O)N(CCCOc1ccc(F)cc1F)CC(=O)NC[C@H]1CC[C@H](C(=O)N[C@@H](Cc2ccc3ccccc3c2)C(=O)NCCCC[C@H](NC(=O)N[C@@H](CCC(=O)O)C(=O)O)C(=O)O)CC1` [Compound 39], in assay [2], the IC50 was found to be 50.5 nM and the inhibition constant Ki was 0.361 nM. Besides, in assay [3], the Kon is 223000 1.ms, the koff was 0.00024 s⁻¹ and the Kd is 1.08 nM.

As to `CC(=O)NCCOCCOCCOCCC(=O)N[C@@H]1C[C@@H](C(=O)N[C@@H](Cc2ccc3ccccc3c2)C(=O)NCCCC[C@H](NC(=O)N[C@@H](CCC(=O)O)C(=O)O)C(=O)O)N(C(=O)CCCOc2cc(C#N)cc(C#N)c2)C1` (stereo in doubt) [Compound 82], in assay [2], the IC50 turned out to be 1.8 nM and the Ki is 0.0129 nM. In assay [3], the Kon is listed as 72200 1.ms; the koff stood at 0.000381 s⁻¹; the affinity, expressed as Kd, was 5.27 nM.

For the molecule `CC(=O)NCCOCCOCCOCCC(=O)NC[C@H]1CC[C@H](C(=O)N[C@@H](Cc2ccc3ccccc3c2)C(=O)NCCCC[C@H](NC(=O)N[C@@H](CCCC(=O)O)C(=O)O)C(=O)O)CC1` [Compound 24], in assay [2], the IC50 was 3350 nM and the inhibitory constant (Ki) is 24 nM. For the same molecule, in assay [3], the Kon is 305000 1.ms, the koff came to 0.0107 s⁻¹ and the Kd was 35.2 nM.

The IC50 is the concentration needed to halve the response being measured. What is called Ki is the equilibrium dissociation constant of an inhibitor or competing ligand from its target. What is called Kd is the free concentration of one partner at which half of the binding sites on the other are occupied at equilibrium, for simple one-to-one binding. A high value points to weaker binding. As usually defined, the koff is a measure of how fast the partners let go of each other. A higher koff goes with a short-lived complex.
